Measured values: ChEMBL document CHEMBL5465560, “Selectivity Literature for EUbOPEN Chemogenomic Library” (2024)
Values belong to the compound of their own block, whether it stands above or below them.

Assays:
[1] = biological target: Interleukin-1 receptor-associated kinase 1 (Homo sapiens) (UniProt P51617); assay: Selectivity interaction (Ambit KINOMEscan and KiNATiv profiling in Jurkat cells) EUB0000090b IRAK1; format: cell-based; details: at 1 µM
[2] = biological target: T1, Rhodopsin kinase GRK7 (Homo sapiens) (UniProt Q8WTQ7); assay: Selectivity interaction (KinomeScan (DiscoverX)) EUB0000655a GRK7; details: at 10 µM
T1 sequence (whole entry): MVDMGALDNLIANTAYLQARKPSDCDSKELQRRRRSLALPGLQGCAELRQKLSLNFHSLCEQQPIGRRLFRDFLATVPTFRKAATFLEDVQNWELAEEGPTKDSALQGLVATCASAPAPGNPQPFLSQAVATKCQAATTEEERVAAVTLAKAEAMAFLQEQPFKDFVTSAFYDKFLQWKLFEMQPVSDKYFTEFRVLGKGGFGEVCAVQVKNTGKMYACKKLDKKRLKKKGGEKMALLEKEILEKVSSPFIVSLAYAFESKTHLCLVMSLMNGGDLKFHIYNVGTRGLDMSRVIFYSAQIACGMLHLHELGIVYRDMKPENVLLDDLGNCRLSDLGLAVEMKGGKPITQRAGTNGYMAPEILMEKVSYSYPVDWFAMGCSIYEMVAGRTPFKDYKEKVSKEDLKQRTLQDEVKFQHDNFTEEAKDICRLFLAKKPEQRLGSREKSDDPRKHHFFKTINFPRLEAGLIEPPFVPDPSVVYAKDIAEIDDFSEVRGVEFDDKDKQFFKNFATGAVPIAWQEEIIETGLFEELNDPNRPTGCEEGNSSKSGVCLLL

[3] = biological target: T2, Serine/threonine-protein kinase NLK (Homo sapiens) (UniProt Q9UBE8); assay: Selectivity interaction (KinomeScan (DiscoverX)) EUB0001079a NLK; details: at 1 µM
T2 sequence (whole entry): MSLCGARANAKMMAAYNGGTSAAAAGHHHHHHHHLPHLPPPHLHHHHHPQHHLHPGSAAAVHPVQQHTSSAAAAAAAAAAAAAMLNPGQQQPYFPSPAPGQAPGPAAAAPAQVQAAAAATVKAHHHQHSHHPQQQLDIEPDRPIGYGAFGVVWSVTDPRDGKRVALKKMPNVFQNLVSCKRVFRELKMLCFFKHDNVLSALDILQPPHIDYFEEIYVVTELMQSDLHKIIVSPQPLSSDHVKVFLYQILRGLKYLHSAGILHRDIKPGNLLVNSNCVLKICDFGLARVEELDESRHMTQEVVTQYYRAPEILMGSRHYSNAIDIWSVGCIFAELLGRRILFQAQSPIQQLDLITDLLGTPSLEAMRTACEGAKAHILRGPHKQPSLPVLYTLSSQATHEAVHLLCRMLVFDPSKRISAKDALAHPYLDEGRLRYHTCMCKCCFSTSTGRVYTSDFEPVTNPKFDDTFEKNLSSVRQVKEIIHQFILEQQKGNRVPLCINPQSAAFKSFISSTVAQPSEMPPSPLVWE

[4] = biological target: RAC-beta serine/threonine-protein kinase (Homo sapiens) (UniProt P31751); assay: Selectivity interaction (KinomeScan (DiscoverX)) EUB0000618a AKT2; details: at 10 µM
[5] = biological target: Mitogen-activated protein kinase kinase kinase kinase 5 (Homo sapiens) (UniProt Q9Y4K4); assay: Selectivity interaction (KinomeScan (DiscoverX)) EUB0001619a MAP4K5; details: at 1 µM
[6] = biological target: Ribosomal protein S6 kinase alpha-3 (Homo sapiens, UniProt P51812); assay: Selectivity interaction (ActivX KiNativ screen (ex vivo kinase selectivity in human PBMCs)) EUB0001619a RPS6KA3; format: cell-based; details: PBMC, at 1 µM
[7] = biological target: Cyclin-dependent kinase 20 (Homo sapiens) (UniProt Q8IZL9); assay: Selectivity interaction (Kinase panel (KiNativ target engagement assay in Jurkat cells)) EUB0001635a CDK20; format: cell-based; details: Selectivity number of off-targets 0.0, Selectivity number of targets 233.0, Source Knowledge https://www.sciencedirect.com/science/article/pii/S2451945619300674?via%3Dihub, at 1 µM
[8] = biological target: Mitogen-activated protein kinase kinase kinase 1 (Homo sapiens, UniProt Q13233); assay: Selectivity interaction (Kinase panel (KiNativ target engagement assay in Jurkat cells)) EUB0001635a MAP3K1; format: cell-based; details: Selectivity number of off-targets 0.0, Selectivity number of targets 233.0, Source Knowledge https://www.sciencedirect.com/science/article/pii/S2451945619300674?via%3Dihub, at 1 µM
[9] = biological target: Serine/threonine-protein kinase MARK1 (Homo sapiens) (UniProt Q9P0L2); details: at 10 µM
[10] = biological target: Ribosomal protein S6 kinase alpha-4 (Homo sapiens) (UniProt O75676); assay: Selectivity interaction (ActivX KiNativ screen (kinase selectivity in THP-1 cell lysates)) EUB0000639a RPS6KA4; format: subcellular; details: lysate
[11] = biological target: Serine/threonine-protein kinase pim-1 (Homo sapiens, UniProt P11309); assay: Selectivity interaction (KinomeScan (DiscoverX)) EUB0001049a PIM1; details: at 1 µM
[12] = biological target: Tyrosine-protein kinase Lck (Homo sapiens, UniProt P06239); assay: Selectivity interaction (Panel of kinases, GPCRs, ion channels and transporters (enzymatic assay)) EUB0000223bCl LCK
[13] = biological target: Muscarinic acetylcholine receptor M1 (Homo sapiens, UniProt P11229); assay: Selectivity interaction (Muscarinic M1 receptor assay, human recombinant ) EUB0000877a CHRM1
[14] = biological target: 5-hydroxytryptamine receptor 2A (Homo sapiens, UniProt P28223); assay: Selectivity interaction (Panel of kinases, GPCRs, ion channels and transporters (enzymatic assay)) EUB0000266bCl HTR2A
[15] = biological target: T3, Interleukin-1 receptor-associated kinase 4 (Homo sapiens) (UniProt Q9NWZ3); assay: Selectivity interaction (KinomeScan (DiscoverX)) EUB0000092b IRAK4; details: at 10 µM
T3 sequence (whole entry): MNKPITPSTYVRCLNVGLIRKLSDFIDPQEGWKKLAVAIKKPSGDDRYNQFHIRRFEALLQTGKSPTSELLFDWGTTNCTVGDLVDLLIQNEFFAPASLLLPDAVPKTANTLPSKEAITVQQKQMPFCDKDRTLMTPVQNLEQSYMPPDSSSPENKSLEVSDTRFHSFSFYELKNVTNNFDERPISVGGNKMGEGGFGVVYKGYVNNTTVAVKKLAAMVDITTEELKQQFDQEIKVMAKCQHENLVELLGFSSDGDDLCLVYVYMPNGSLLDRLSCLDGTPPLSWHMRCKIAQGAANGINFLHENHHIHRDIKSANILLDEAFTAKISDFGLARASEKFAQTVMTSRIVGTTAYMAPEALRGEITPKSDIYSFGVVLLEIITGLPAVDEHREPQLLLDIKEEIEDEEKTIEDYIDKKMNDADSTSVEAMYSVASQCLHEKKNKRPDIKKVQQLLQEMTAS

[16] = biological target: Tyrosine-protein kinase JAK2 (Homo sapiens, UniProt O60674); assay: Selectivity interaction (Kinase panel (Carna Biosciences)) EUB0001542aTs JAK2; details: at 1 µM
[17] = biological target: Ribosomal protein S6 kinase alpha-1 (Homo sapiens, UniProt Q15418); assay: Selectivity interaction (Kinase panel (Z-LYTE Assay)) EUB0001632a RPS6KA1; details: at 10 µM

Sequence of Ribosomal protein S6 kinase alpha-4 (Homo sapiens) (O75676 whole entry, looked up): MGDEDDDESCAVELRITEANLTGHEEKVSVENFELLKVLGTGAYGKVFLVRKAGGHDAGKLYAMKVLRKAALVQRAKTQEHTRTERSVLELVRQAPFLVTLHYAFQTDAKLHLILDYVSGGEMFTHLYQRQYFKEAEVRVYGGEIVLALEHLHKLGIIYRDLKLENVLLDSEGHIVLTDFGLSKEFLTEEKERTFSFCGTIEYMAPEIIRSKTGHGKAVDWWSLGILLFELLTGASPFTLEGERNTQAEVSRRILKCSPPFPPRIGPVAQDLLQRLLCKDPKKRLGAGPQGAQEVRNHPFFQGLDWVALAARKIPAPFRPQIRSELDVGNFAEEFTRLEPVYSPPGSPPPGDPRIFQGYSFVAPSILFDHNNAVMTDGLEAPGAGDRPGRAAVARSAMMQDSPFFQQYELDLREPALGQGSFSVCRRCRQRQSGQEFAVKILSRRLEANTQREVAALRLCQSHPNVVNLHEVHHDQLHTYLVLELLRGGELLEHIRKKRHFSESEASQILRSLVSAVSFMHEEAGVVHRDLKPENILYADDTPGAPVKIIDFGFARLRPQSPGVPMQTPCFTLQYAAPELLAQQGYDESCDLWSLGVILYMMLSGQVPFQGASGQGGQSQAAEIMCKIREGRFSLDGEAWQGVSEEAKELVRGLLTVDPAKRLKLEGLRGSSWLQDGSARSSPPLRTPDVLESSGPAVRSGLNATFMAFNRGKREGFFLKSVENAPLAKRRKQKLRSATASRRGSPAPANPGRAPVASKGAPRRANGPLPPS
Sequence of Serine/threonine-protein kinase MARK1 (Homo sapiens) (Q9P0L2 whole entry, looked up): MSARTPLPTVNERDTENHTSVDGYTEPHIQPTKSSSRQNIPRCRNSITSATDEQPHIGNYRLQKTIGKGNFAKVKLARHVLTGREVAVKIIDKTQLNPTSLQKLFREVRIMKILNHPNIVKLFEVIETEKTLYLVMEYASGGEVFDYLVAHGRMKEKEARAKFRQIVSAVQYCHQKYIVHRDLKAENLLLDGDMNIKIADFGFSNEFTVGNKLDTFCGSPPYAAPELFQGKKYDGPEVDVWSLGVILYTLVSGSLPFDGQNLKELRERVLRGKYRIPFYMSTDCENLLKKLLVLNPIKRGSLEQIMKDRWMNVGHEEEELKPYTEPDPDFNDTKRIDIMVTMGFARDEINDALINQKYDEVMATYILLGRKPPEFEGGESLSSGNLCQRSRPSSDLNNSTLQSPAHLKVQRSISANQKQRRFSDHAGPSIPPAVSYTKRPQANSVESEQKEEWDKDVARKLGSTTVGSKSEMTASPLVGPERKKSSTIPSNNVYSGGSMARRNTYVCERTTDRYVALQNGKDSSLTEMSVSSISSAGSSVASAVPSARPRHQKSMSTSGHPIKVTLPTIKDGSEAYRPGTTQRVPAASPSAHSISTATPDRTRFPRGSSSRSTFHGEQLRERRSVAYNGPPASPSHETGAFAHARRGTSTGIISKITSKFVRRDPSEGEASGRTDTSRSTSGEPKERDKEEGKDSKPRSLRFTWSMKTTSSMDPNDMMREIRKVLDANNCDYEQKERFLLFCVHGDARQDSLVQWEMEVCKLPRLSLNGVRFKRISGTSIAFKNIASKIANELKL
Sequence of 5-hydroxytryptamine receptor 2A (P28223 whole entry): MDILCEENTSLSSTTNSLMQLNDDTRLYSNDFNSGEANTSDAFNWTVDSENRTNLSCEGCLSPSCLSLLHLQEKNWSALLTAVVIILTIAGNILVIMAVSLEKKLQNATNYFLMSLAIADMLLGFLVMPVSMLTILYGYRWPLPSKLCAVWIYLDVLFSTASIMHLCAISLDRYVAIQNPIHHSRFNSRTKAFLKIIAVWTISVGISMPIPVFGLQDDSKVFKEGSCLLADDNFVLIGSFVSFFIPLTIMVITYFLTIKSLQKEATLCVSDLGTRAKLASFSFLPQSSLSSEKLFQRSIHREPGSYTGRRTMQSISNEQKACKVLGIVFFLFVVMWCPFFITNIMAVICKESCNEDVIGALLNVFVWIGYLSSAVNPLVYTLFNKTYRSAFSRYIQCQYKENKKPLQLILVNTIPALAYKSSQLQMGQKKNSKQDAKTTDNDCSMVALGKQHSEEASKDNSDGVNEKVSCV
Sequence of Tyrosine-protein kinase Lck (P06239 2-509 limits assumed): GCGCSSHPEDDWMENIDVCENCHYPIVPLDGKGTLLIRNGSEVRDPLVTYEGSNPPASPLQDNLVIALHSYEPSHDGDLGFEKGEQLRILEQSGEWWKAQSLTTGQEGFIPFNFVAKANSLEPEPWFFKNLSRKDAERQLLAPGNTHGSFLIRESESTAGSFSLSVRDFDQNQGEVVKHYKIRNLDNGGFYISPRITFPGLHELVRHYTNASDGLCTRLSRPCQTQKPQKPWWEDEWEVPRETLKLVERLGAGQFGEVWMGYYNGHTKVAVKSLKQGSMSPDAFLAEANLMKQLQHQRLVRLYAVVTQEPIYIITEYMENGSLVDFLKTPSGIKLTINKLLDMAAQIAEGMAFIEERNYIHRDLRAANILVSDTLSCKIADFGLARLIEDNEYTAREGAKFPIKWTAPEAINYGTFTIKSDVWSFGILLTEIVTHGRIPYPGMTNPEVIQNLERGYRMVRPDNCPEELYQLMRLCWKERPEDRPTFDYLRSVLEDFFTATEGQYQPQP
Sequence of Serine/threonine-protein kinase pim-1 (P11309 whole entry, looked up): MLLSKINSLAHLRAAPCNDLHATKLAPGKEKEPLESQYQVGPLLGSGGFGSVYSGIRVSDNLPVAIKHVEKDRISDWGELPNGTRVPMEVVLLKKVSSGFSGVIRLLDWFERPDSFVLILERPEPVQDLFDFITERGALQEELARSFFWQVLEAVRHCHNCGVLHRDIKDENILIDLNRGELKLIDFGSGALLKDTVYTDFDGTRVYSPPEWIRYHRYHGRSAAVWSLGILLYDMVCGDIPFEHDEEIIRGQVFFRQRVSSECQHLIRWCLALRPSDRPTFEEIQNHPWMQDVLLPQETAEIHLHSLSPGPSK
Sequence of Mitogen-activated protein kinase kinase kinase 1 (Q13233 whole entry): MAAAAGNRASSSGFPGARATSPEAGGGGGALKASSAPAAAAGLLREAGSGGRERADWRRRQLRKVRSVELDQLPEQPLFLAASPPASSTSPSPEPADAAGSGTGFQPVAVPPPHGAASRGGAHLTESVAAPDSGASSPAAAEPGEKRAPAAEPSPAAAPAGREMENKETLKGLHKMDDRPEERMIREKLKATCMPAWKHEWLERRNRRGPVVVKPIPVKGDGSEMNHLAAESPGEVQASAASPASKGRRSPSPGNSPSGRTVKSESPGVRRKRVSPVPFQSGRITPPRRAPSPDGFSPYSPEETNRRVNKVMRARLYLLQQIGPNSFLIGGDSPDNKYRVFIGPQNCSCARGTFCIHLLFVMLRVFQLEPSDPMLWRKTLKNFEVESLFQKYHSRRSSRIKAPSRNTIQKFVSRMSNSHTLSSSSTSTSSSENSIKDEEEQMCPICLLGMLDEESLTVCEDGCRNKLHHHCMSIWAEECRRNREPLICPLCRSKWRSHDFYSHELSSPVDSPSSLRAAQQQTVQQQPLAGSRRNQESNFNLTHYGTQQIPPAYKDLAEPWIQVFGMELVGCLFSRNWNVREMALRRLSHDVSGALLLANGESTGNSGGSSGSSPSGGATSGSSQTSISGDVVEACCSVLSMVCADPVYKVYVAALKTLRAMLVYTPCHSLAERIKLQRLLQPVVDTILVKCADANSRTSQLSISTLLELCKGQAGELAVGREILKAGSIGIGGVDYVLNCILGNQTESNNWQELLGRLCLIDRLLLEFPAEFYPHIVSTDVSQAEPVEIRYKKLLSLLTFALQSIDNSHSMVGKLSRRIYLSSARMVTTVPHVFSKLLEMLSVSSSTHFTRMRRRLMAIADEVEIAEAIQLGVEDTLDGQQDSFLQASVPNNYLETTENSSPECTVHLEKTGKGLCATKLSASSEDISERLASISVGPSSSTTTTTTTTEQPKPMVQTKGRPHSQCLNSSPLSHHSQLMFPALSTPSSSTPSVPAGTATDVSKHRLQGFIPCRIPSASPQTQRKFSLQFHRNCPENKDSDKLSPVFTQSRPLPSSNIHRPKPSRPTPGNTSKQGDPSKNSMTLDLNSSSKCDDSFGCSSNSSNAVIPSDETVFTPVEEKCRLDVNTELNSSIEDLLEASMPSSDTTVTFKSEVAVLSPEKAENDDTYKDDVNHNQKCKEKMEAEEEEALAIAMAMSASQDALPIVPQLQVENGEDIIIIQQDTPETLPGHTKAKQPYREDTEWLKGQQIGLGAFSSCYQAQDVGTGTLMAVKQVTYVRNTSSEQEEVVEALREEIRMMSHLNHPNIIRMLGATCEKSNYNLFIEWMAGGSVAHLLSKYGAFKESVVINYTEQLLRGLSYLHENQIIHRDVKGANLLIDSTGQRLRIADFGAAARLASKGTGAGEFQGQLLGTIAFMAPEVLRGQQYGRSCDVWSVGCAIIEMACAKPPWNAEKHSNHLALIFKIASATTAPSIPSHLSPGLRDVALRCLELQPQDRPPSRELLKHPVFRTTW
Sequence of Cyclin-dependent kinase 20 (Homo sapiens) (Q8IZL9 whole entry): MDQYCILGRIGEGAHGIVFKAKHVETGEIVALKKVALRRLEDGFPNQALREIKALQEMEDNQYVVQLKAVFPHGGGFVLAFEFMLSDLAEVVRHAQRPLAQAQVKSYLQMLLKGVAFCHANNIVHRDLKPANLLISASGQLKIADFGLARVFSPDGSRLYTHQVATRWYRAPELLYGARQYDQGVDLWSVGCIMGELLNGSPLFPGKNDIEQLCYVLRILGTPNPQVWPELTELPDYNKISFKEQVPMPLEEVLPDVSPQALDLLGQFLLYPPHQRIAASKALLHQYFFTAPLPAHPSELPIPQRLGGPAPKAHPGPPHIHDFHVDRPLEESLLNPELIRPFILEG

SMILES: CN(C)C/C=C/C(=O)Nc1ccc(C(=O)N2CCCC(Nc3ncc(Cl)c(-c4c[nH]c5ccccc45)n3)C2)cc1 (stereo unspecified)
% of control [1]: 97%

SMILES: CN(C)CCOc1ccc(-c2nc(-c3ccncc3)c(-c3ccc4c(c3)CC/C4=N\O)[nH]2)cc1
% of control [2]: 100%

SMILES: Nc1cnc(N2CCc3cc(S(=O)(=O)Nc4c(F)cc(Cl)cc4F)cc(N4CCCC4=O)c32)nc1 [TP-020n]
% of control [3]: 100%

SMILES: O[C@H]1CC[C@H](Nc2ncc3nc(Nc4c(F)cc(F)cc4F)n([C@H]4CCOC4)c3n2)CC1
% of control [4]: 100%

SMILES: N#Cc1cccc(-c2c[nH]c3ncnc(N4CCOCC4)c23)c1
% of control [5]: 53% | % of inhibition [6]: -3%

SMILES: C=CC(=O)Nc1ccc(C(=O)Nc2[nH]nc3c2CN(C(=O)N[C@H](CN(C)C)c2ccccc2)C3(C)C)cc1
% of engagement [7]: 4.7% | % of engagement [8]: 12.9%

SMILES: Cc1cc([C@@H](C)Nc2ccccc2C(=O)O)c2nc(N3CCOCC3)cc(=O)n2c1 [AZD-6482]
% of control [9]: 100%

% of inhibition ([10]; at 0.01 µM): -4.6% | % of inhibition ([10]; at 0.04 µM): -2.6% | % of inhibition ([10]; at 0.2 µM): -18.1% | % of inhibition ([10]; at 1 µM): -20.7% | % of inhibition ([10]; at 5 µM): -27.3%
SMILES: CC[C@@H]1[C@H](F)C(=O)N[C@@H]1COc1nccc2cc(C(N)=O)c(OC)cc12 [ZIMLOVISERTIB]

SMILES: COc1cc(Nc2nc(C)cc(-c3cnn4nc(OC)ccc34)n2)cc(C(F)(F)F)c1
% of control [11]: 100%

SMILES: COc1cc(C(=O)N2CC[C@@H](O)[C@@H](N)C2)cc2nc(-c3cc4ccccc4n3CC3CC3)n(C)c12
pXC50 [12]: < 4.5 M

IC50 [13]: > 30 µM
SMILES: CCC(=O)N1CC[C@H](Nc2ncnc3c2CN(c2cnc(OC)c(C(F)(F)F)c2)CC3)C1 [LENIOLISIB]

pXC50 [14]: 5.3 M
SMILES: CCn1c(-c2nc3cc(C(=O)N4CCCC(N)C4)ccc3n2C)cc2ccccc21 (stereo unspecified)

SMILES: CCC(=O)N1CCN(c2ccc(-n3c(=O)ccc4cnc5ccc(-c6cnc7ccccc7c6)cc5c43)cc2C(F)(F)F)CC1
% of control [15]: 90%

% of inhibition [16]: 94%
SMILES: Cn1cc(Nc2nccc(N3CC4CCC(C3)N4C(=O)[C@@H]3CC3(F)F)n2)cn1

% of control [17]: -6.37%
SMILES: Cn1cc(-n2cnc3c(NCc4nc5cc(Cl)c(Cl)cc5[nH]4)nc(N4CCOCC4)nc32)cn1
